Measured values from US4579866A, “Phenylacetamides as anti-allergy, anti-asthma and anti-inflammatory agents” (USV Pharmaceutical Corp., priority 1984, dated 1986).

Target: T1, RAT 5-LIPOXYGENASE (Rattus norvegicus, UniProt P12527)
T1 construct: A suspension of rat neutrophils in buffer; endogenous in cells; host or cells: rat neutrophils (polymorphonuclear leukocytes)
T1 sequence (P12527 1-673): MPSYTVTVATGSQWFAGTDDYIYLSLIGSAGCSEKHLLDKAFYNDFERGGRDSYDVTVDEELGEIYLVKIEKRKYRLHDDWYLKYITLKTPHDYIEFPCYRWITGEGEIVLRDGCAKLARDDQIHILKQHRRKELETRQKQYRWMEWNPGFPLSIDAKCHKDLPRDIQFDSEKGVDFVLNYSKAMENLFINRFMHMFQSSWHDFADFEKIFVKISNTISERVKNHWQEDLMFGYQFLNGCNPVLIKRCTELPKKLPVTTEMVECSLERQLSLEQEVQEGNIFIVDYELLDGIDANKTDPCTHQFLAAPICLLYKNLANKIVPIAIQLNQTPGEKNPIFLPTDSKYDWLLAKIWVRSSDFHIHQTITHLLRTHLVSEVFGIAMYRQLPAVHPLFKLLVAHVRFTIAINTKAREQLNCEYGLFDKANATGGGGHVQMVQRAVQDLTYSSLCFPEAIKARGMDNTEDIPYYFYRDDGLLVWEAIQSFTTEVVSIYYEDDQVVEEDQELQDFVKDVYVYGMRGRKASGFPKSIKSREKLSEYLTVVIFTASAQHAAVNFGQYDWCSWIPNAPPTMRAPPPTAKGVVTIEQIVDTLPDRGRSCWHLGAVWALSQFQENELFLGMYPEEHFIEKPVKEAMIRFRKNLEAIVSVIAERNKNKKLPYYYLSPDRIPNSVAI
Test: Biosynthesis of 5-HETE by rat polymorphonuclear leukocytes in vitro (inhibition of rat 5-lipoxygenase)
Assay type: cell-based
Conditions: rat neutrophils, A23187, 3 minutes at 30° C.; concentration at which 50% inhibition is observed; read-out: INHIBITION OF RAT 5-LIPOXYGENASE, I50
Protocol: Protocol for the Biosynthesis of 5-HETE by Rat Polymorphonuclear Leukocytes In Vitro
A suspension of rat neutrophils in buffer is incubated for 3 minutes at 30° C. with [^14 C]-arachidonic acid (AA) and calcium ionophore A23187. Citric Acid (2M) NDGA (10 mM) is used to quench the reaction. Following the addition of a trace amount of (^3 H)-5-HETE together with an excess of unlabeled 5-HETE to each tube, the mixture is extracted with chloroform/methanol. The organic layer is washed with dilute acid and an aliquot is transferred to glass tubes and dried. The residue is dissolved in a small volume of chloroform and an aliquot is spotted on silica gel TLC sheets, which are developed with an ethyl acetate/isoctane/water/acetic acid solvent system. The 5-HETE spots are visualized under UV light, cut out and placed in scintillation vials for counting. After adjusting for the extraction efficiency, the amount (pmole) of [^14 C]-5-HETE in each of the tubes is quantitated. The net pmoles of 5-HETE are obtained by subtracting the pmoles of 5-HETE in the tubes containing buffer alone (blank) from the pmoles of 5-HETE in the tubes containing […]. The ability of the test compounds to modulate the activity of this enzyme is determined by a decrease or increase in the net amount of 5-HETE produced.
If the percentage of inhibition exceeds 50%, the compounds are then evaluated in terms of response over a range of concentrations. From a plot of response against concentration, the I50 value is obtained. The I50 value is the concentration at which 50% inhibition is observed.

Row | Structure (SMILES) | IC50 [nM]
1 | CCCOc1ccc(CC(=O)N[C@H](Cc2ccccc2)C(=O)OC)cc1Cl [3-Chloro-4-n-propyloxyphenylacetyl-D-phenylalanine methyl ester] | 800
2 | C#CCOc1ccc(CC(=O)N[C@H](Cc2ccccc2)C(=O)OC)cc1Cl [3-Chloro-4-propargyloxyphenylacetyl-D-phenylalanine methyl ester] | 500
3 | CN(CC(O)c1ccccc1)C(=O)Cc1ccc(OCCc2ccccc2)c(Cl)c1 (stereo not shown) [N--[3-Chloro-4-phenylethyloxyphenylacetyl]-N--methyl-2-hydroxy-2-phenyl-ethyl-amine] | 3000
4 | C=CCOc1ccc(CC(=O)N(C)CCc2ccccc2)cc1Cl [N--[4-Alloyoxy-3-chlorophenylacetyl]-N--methyl-2-phenylethylamine] | 2400
